Measured values from patent US20250257086A1, “EGFR DEGRADATION AGENT” (Beijing Tide Pharmaceutical Co., Ltd., priority 2022, published 2025).

Biological target: Ba/F3 (EGFR^L858R/T790M/C797S) cells (Homo sapiens, UniProt P00533, T790M/C797S/L858R, cells depend on it)
Assay: Antiproliferative activity on Ba/F3 (EGFR L858R/T790M/C797S) cells (CTG)
Format: cell-based
Details: 72h incubation, CTG luminescence, read-out: IC50 (nM), antiproliferative activity
Experimental: 30 nL of the compound dilution was added to a 384-well plate by Echo (Labcyte, Echo550).
The percent inhibition rate (% inhibition) was calculated by the following formula
[formula] • LUMcmpd: Luminescence value of assay compound. • LUMpositive: Average LUM value of positive drug with a concentration of 10 μM. • LUMvehicle: Average LUM value of negative control group without drug treatment.
The nonlinear regression curve (dose response-variable slope) between the value of inhibition rate (%) and the logarithm of compound concentration was fitted with graphpad prism 8.0, the effect dose curve of compound was drawn, and the IC50 value was calculated.
Y=Bottom+(Top−Bottom)/(1+10^((Log IC50−X)*HillSlope)) • X-axis: logarithm of compound concentration; Y axis: inhibition rate (% inhibition).

Sequence of Ba/F3 (EGFR^L858R/T790M/C797S) cells (P00533 whole entry T790M/C797S/L858R): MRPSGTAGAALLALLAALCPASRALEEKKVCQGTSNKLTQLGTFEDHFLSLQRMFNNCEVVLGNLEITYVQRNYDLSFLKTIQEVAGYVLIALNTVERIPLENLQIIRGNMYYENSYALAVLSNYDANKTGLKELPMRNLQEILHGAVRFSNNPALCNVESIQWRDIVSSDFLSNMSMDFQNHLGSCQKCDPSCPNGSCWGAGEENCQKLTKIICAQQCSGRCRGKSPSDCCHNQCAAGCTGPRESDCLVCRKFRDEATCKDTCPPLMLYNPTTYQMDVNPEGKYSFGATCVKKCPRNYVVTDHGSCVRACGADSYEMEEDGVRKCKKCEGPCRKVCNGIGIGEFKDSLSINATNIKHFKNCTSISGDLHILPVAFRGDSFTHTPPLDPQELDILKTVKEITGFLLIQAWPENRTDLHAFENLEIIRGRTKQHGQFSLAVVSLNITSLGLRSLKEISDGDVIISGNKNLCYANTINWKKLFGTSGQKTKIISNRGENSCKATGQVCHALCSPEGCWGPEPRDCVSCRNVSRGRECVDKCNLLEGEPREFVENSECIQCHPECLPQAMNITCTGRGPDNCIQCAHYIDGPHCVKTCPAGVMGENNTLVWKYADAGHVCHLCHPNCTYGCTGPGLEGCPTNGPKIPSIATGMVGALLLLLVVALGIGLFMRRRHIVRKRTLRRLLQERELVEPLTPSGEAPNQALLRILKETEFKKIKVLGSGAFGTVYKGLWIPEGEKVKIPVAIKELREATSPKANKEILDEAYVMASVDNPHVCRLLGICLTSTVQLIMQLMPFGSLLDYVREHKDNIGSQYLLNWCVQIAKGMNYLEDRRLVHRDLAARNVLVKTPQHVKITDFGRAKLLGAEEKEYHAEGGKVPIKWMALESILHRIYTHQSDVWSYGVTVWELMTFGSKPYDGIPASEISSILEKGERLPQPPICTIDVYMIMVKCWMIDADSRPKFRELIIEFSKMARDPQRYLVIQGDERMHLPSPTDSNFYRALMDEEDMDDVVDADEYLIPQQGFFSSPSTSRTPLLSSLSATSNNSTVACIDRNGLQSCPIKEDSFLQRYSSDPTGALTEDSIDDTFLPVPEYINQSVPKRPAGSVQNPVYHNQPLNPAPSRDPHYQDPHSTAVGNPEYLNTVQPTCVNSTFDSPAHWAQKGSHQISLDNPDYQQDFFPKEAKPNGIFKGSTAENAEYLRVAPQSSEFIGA

Compound	GI50 [nM]
COc1cc(N2CCC(N3CCN(CCCCCC#Cc4cccc5c4CN(C4CCC(=O)NC4=O)C5=O)CC3)CC2)c(NC(=O)/C=C/CN(C)C)cc1Nc1ncc(Br)c(Nc2ccccc2P(C)(C)=O)n1 (stereo not shown) [Compound D563, N-(5-((5-bromo-4-((2-(dimethylphosphoryl)phenyl)amino)pyrimidin-2-yl)amino)-2-(4-(4-(7-(2-(2,6-dioxopiperidin-3-yl)-1-oxoisoindolin-4-yl)hept-6-yn-1-yl)piperazin-1-yl)piperidin-1-yl)-4-dimethoxyphenyl)-4-(dimethylamino)but-2-enamide]	306
COc1cc(N2CCC(N3CCN(CCCC#Cc4cccc5c4CN(C4CCC(=O)NC4=O)C5=O)CC3)CC2)c(NC(=O)/C=C/CN(C)C)cc1Nc1ncc(Cl)c(Nc2ccccc2P(C)(C)=O)n1 (stereo not shown) [Compound D555, N-(5-((5-chloro-4-((2-(dimethylphosphoryl)phenyl)amino)pyrimidin-2-yl)amino)-2-(4-(4-(5-(2-(2,6-dioxopiperidin-3-yl)-1-oxoisoindolin-4-yl)pent-4-yn-1-yl)piperazin-1-yl)piperidin-1-yl)-4-methoxyphenyl)-4-(dimethylamino)but-2-enamide]	67.6
CC#CC(=O)Nc1cc(Nc2ncc(Cl)c(Nc3ccccc3P(C)(C)=O)n2)c(OC)cc1N1CCC(N2CCN(CCCCC#Cc3cccc4c3CN(C3CCC(=O)NC3=O)C4=O)CC2)CC1 (stereo not shown) [Compound D559, N-(5-((5-chloro-4-((2-(dimethylphosphoryl)phenyl)amino)pyrimidin-2-yl)amino)-2-(4-(4-(6-(2-(2,6-dioxopiperidin-3-yl)-1-oxoisoindolin-4-yl)hex-5-yn-1-yl)piperazin-1-yl)piperidin-1-yl)-4-methoxyphenyl)but-2-ynamide]	50.4

Other lines, results leading:

GI50 [nM]	Compound
45.6	COc1cc(N2CCC(N3CCN(CCCC#Cc4cccc5c4CN(C4CCC(=O)NC4=O)C5=O)CC3)CC2)c(NC(=O)/C=C/c2cccs2)cc1Nc1ncc(Cl)c(Nc2ccccc2P(C)(C)=O)n1 (stereo not shown) [Compound D583, (E)-N-(5-((5-chloro-4-((2-(dimethylphosphoryl)phenyl)amino)pyrimidin-2-yl)amino)-2-(4-(4-(5-(2-(2,6-dioxopiperidin-3-yl)-1-oxoisoindolin-4-yl)pent-4-yn-1-yl)piperazin-1-yl)piperidin-1-yl)-4-methoxyphenyl)-3-(thiophen-2-yl)acrylamide]
460	C=C(Cl)C(=O)Nc1cc(Nc2ncc(Cl)c(Nc3ccccc3P(C)(C)=O)n2)c(OC)cc1N1CCC(N2CCN(CCCC#Cc3cccc4c3CN(C3CCC(=O)NC3=O)C4=O)CC2)CC1 (stereo not shown) [Compound D597, 2-chloro-N-(5-((5-chloro-4-((2-(dimethylphosphoryl)phenyl)amino)pyrimidin-2-yl)amino)-2-(4-(4-(5-(2-(2,6-dioxopiperidin-3-yl)-1-oxoisoindolin-4-yl)pent-4-yn-1-yl)piperazin-1-yl)piperidin-1-yl)-4-methoxyphenyl)acrylamide]
21.2	CCCC#CC(=O)Nc1cc(Nc2ncc(Cl)c(Nc3ccccc3P(C)(C)=O)n2)ccc1N1CCC(N2CCN(CCCC#Cc3cccc4c3CN(C3CCC(=O)NC3=O)C4=O)CC2)CC1 (stereo not shown) [Compound D668, N-(5-((5-chloro-4-((2-(dimethylphosphoryl)phenyl)amino)pyrimidin-2-yl)amino)-2-(4-(4-(5-(2-(2,6-dioxopiperidin-3-yl)-1-oxoisoindolin-4-yl)pent-4-yn-1-yl)piperazin-1-yl)piperidin-1-yl)phenyl)hex-2-ynamide]
7.76	CC#CC(=O)Nc1cc(Nc2ncc(C(F)(F)F)c(Nc3ccccc3P(C)(C)=O)n2)c(OC)cc1N1CCC(N2CCN(CCCC#Cc3cccc4c3CN(C3CCC(=O)NC3=O)C4=O)CC2)CC1 (stereo not shown) [Compound D748, N-(5-((4-((2-(dimethylphosphoryl)phenyl)amino)-5-(trifluoromethyl)pyrimidin-2-yl)amino)-2-(4-(4-(5-(2-(2,6-dioxopiperidin-3-yl)-1-oxoisoindolin-4-yl)pent-4-yn-1-yl)piperazin-1-yl)piperidin-1-yl)-4-methoxyphenyl)but-2-ynamide]
